Like-named read-outs stand apart in the source and are kept apart here. One block for each molecule: values may come before it.
Assays:
Assay type in all cases: in vivo
[1] = system: foot mucosa of slugs (species Arion); assay: Slug mucosal toxicity test, Example 1 (15 min daily treatment, five days); details: for % WL, reduction in weight (weight loss) caused by the 15 minute treatment as % of initial body weight of the day / % MP, mucus production as % of the body weight at the start of the day before the treatment: 1% w/v in PBS; for % MP, mucus production as % of the body weight at the start of the day before the treatment / ALP released into PBS / LDH released into PBS / Protein released into PBS: 15 min; for ALP released into PBS / LDH released into PBS / Protein released into PBS: total mean of 7 samples/day per slug
Excerpt: Initially, the slugs are kept on a culture under controlled conditions of temperature and humidity until they have reached a stable body weight. The purpose of achieving a stable body weight is to improve the reproducibility of the results, particularly as the release of substances from the slugs may conveniently be measured in terms of the body weight thereof. The slugs are then isolated from the culture and placed in a vented plastic box lined with moist paper towel and placed at 95% relative humidity at 20° C. seven days before the start of an experiment. The slugs were not bred in any particular way, i.e. they were wild slugs. It is anticipated that even more accurate and reproducible results can be obtained by selective breeding of the slugs, although as shown by the test results this is not a necessary requirement of the present invention to obtain accurate and useful data.
The test procedure is simple and rapid. The chemical substance to be tested is applied directly to the mucosal membrane of a slug, e.g. to the foot, by placing the slug individually in a petri dish containing the test substance. Slugs treated with phosphate buffered saline are used as a negative control. As a positive control slugs treated with a known toxic substance, benzalkonium chloride, were used.
Because the mucosal epithelium of interest is located at the outside of the slug the effect of substances can be easily observed. […] This can also be simply measured by weighing the petri dish before and after the treatment of the slugs with the chemical substance (with the slugs removed in each case). Additionally an indirect response to epithelial damage caused by a chemical substance may be determined by the reduction of the body weight of the slugs due to the leakage of haemolymphatic fluids through the damaged foot surface.
After the treatment the slugs are transferred individually to a fresh petri dish containing phosphate buffered saline. After a suitable exposure time, e.g. 1 hour the phosphate buffered saline is collected and analysed for the presence of proteins and/or enzymes, e.g. lactate dehydrogenase and/or alkaline phosphatase, or other marker substances released from the foot or epithelium of the slug, for example membrane associated components such as phospholipids or cholesterol. This procedure can be repeated after periods of several hours in order to determine the reversibility of the cell damage caused by the test chemical substance. The concentration or amount of the chemical substance to be tested can be changed and the influence of the concentration can be easily examined. The exposure time can also be changed if required. The slugs can be treated during several successive days in order to investigate the subchronical effect of substances on the foot mucosa.
Seven days before the start of the experiment the slugs were isolated in a plastic box lined with moist paper towel and placed at 95% relative humidity at 20° C. As test substances didecanyol-L-α-phosphatidylcholine (DDPC) and sodium deoxycholate (SDC) were selected. Benzalkonium chloride (1% w/v), SDC (1% w/v) and DDPC (1%, w/v) were prepared in phosphate buffered saline (PBS, pH 7.4). […] During the test the slugs are preferably kept in a generally calm and normal state and are not subjected to mechanical vibrations or mechanical or electrical disturbances which may affect mucus production.
The enzymes (lactate dehydrogenase (LDH) and alkaline phosphatase (ALP)) and total protein released into the PBS were determined. The slugs were weighed before and after the incubation period to determine the body weight changes. The mucus production was measured by weighing the petri dishes before and after the treatment with a test substance. The results are shown in Table 1 and shown graphically in FIGS. 1 to 5.

[2] = system: foot mucosa of slugs of species Arion; details: for ALP released into PBS / LDH released into PBS / Protein released into PBS: 1% w/v (HPβCD 5% w/v), total mean of 7 samples/day per slug
[3] = system: foot mucosa of slugs of species Limax; details: for % MP, mucus production as % of the body weight at the start of the day before the treatment: 1% w/v (HPβCD 5% w/v) in PBS, 15 min; for ALP released into PBS / LDH released into PBS / Protein released into PBS: 1% w/v (HPβCD 5% w/v), total mean of 7 samples/day per slug
Protocol: Slugs of the species Limax are terrestial slugs have lungs and also a small internal shell. As test substances hydroxypropyl-β-cyclodextrin (HPβCD), sodium tauro-24,25-dihdrofiisidate (STDHF) and sodium deoxycholate were selected. Benzalkonium chloride (1% w/v), HPβCD (5% w/v), STDHF (1% w/v) and SDC (1% w/v) were prepared in phosphate buffered saline (PBS, pH 7.4).
The enzymes lactate dehydrogenase (LDH) and alkaline phosphatase (ALP) and total protein released into the PBS were determined. The change in body weight and mucus production caused by the treatment were examined.

Molecule: sodium deoxycholate [SDC]
membrane damage (in words) ([1]; 1% w/v, 15 min daily, five days): severe membrane damage
% WL, reduction in weight (weight loss) caused by the 15 minute treatment as % of initial body weight of the day ([1]; day 1): 12.73%
% MP, mucus production as % of the body weight at the start of the day before the treatment ([1]; day 1): 7.6%
ALP released into PBS ([1]; day 1, 1% w/v): 13.49 U/L
LDH released into PBS ([1]; day 1, 1% w/v): 14.07 U/L
Protein released into PBS ([1]; day 1, 1% w/v): 19.92 μg/30 μL
% WL, reduction in weight (weight loss) caused by the 15 minute treatment as % of initial body weight of the day ([1]; day 2): 12.60%
% MP, mucus production as % of the body weight at the start of the day before the treatment ([1]; day 2): 10.7%
ALP released into PBS ([1]; day 2, 1% w/v): 43.02 U/L
LDH released into PBS ([1]; day 2, 1% w/v): 93.01 U/L
Protein released into PBS ([1]; day 2, 1% w/v): 22.84 μg/30 μL
% WL, reduction in weight (weight loss) caused by the 15 minute treatment as % of initial body weight of the day ([1]; day 3): 8.06%
% MP, mucus production as % of the body weight at the start of the day before the treatment ([1]; day 3): 5.5%
ALP released into PBS ([1]; day 3, 1% w/v): 103.56 U/L
LDH released into PBS ([1]; day 3, 1% w/v): 135.93 U/L
Protein released into PBS ([1]; day 3, 1% w/v): 38.95 μg/30 μL
% WL, reduction in weight (weight loss) caused by the 15 minute treatment as % of initial body weight of the day ([1]; day 4): 11.28%
% MP, mucus production as % of the body weight at the start of the day before the treatment ([1]; day 4): 7.6%
ALP released into PBS ([1]; day 4, 1% w/v): 42.22 U/L
LDH released into PBS ([1]; day 4, 1% w/v): 146.89 U/L
Protein released into PBS ([1]; day 4, 1% w/v): 54.76 μg/30 μL
% WL, reduction in weight (weight loss) caused by the 15 minute treatment as % of initial body weight of the day ([1]; day 5): 8.03%
% MP, mucus production as % of the body weight at the start of the day before the treatment ([1]; day 5): 2.6%
ALP released into PBS ([1]; day 5, 1% w/v): 22.98 U/L
LDH released into PBS ([1]; day 5, 1% w/v): 136.19 U/L
Protein released into PBS ([1]; day 5, 1% w/v): 55.59 μg/30 μL
ranking order of increasing toxicity ([2]; Arion): PBS, 5% HPβCD<1% STDHF<1% SDC and 1% BAC
membrane damage (in words) ([2]; Arion, 1% w/v (SDC data in Table 1, Example 1)): severe membrane damage
reduction in body weight to % of the initial weight ([2]; Arion, 1% w/v, five days (SDC data from Example 1)): about 50%
ranking order of increasing toxicity ([3]; Limax): PBS, 5% HPβCD<1% STDHF<1% SDC and 1% BAC
membrane damage (in words) ([3]; Limax, 1% w/v): severe membrane damage
reduction in body weight to % of the initial weight ([3]; Limax, 1% w/v, five days): about 50%
% MP, mucus production as % of the body weight at the start of the day before the treatment ([3]; day 1, Limax): 11.16%
ALP released into PBS ([3]; day 1, Limax): 11.62 U/L
LDH released into PBS ([3]; day 1, Limax): 9.01 U/L
Protein released into PBS ([3]; day 1, Limax): 10.1 μg/30μL
% MP, mucus production as % of the body weight at the start of the day before the treatment ([3]; day 2, Limax): 10.27%
ALP released into PBS ([3]; day 2, Limax): 3.34 U/L
LDH released into PBS ([3]; day 2, Limax): 13.6 U/L
Protein released into PBS ([3]; day 2, Limax): 15.78 μg/30μL
% MP, mucus production as % of the body weight at the start of the day before the treatment ([3]; day 3, Limax): 13.01%
ALP released into PBS ([3]; day 3, Limax): 2.62 U/L
LDH released into PBS ([3]; day 3, Limax): 26.15 U/L
Protein released into PBS ([3]; day 3, Limax): 18.04 μg/30μL
% MP, mucus production as % of the body weight at the start of the day before the treatment ([3]; day 4, Limax): 19.38%
ALP released into PBS ([3]; day 4, Limax): 6.24 U/L
LDH released into PBS ([3]; day 4, Limax): 85.8 U/L
Protein released into PBS ([3]; day 4, Limax): 35.04 μg/30μL
% MP, mucus production as % of the body weight at the start of the day before the treatment ([3]; day 5, Limax): 8.11%
ALP released into PBS ([3]; day 5, Limax): 28.79 U/L
LDH released into PBS ([3]; day 5, Limax): 145.71 U/L
Protein released into PBS ([3]; day 5, Limax): 88.14 μg/30μL

Molecule: CC(=O)OC1CC2(C)C(CC(O)C3C4(C)CCC(O)C(C)C4CCC32C)C1=C(CCCC(C)C)C(=O)NCCS(=O)(=O)O (centres unmarked) [STDHF, sodium tauro-24,25-dihdrofiisidate]
ranking order of increasing toxicity ([2]; Arion): PBS, 5% HPβCD<1% STDHF<1% SDC and 1% BAC
LDH release (in words) ([2]; Arion, 1% w/v): slightly increased LDH release
body weight change (in words) ([2]; Arion, 1% w/v): decrease in body weight
mucus production (in words) ([2]; Arion, HPβCD 5% w/v, STDHF 1% w/v): increased mucus production
% MP, mucus production ([2]; day 1, Arion, 1% w/v (HPβCD 5% w/v) in PBS, 15 min): 7.7%
ALP released into PBS ([2]; day 1, Arion): 21.77 U/L
LDH released into PBS ([2]; day 1, Arion): 18.22 U/L
Protein released into PBS ([2]; day 1, Arion): 15.68 μg/30μL
% MP, mucus production ([2]; day 2, Arion, 1% w/v (HPβCD 5% w/v) in PBS, 15 min): 3.85%
ALP released into PBS ([2]; day 2, Arion): 9.39 U/L
LDH released into PBS ([2]; day 2, Arion): 14.44 U/L
Protein released into PBS ([2]; day 2, Arion): 2.84 μg/30μL
% MP, mucus production ([2]; day 3, Arion, 1% w/v (HPβCD 5% w/v) in PBS, 15 min): 3.45%
ALP released into PBS ([2]; day 3, Arion): 8.66 U/L
LDH released into PBS ([2]; day 3, Arion): 24.04 U/L
Protein released into PBS ([2]; day 3, Arion): 2.79 μg/30μL
% MP, mucus production ([2]; day 4, Arion, 1% w/v (HPβCD 5% w/v) in PBS, 15 min): 4.81%
ALP released into PBS ([2]; day 4, Arion): 15.14 U/L
LDH released into PBS ([2]; day 4, Arion): 20.53 U/L
Protein released into PBS ([2]; day 4, Arion): 4.55 μg/30μL
% MP, mucus production ([2]; day 5, Arion, 1% w/v (HPβCD 5% w/v) in PBS, 15 min): 4.41%
ALP released into PBS ([2]; day 5, Arion): 4.81 U/L
LDH released into PBS ([2]; day 5, Arion): 25.65 U/L
Protein released into PBS ([2]; day 5, Arion): 4.18 μg/30μL
ranking order of increasing toxicity ([3]; Limax): PBS, 5% HPβCD<1% STDHF<1% SDC and 1% BAC
LDH release (in words) ([3]; Limax, 1% w/v): slightly increased LDH release
body weight change (in words) ([3]; Limax, 1% w/v): decrease in body weight
mucus production (in words) ([3]; Limax, HPβCD 5% w/v, STDHF 1% w/v): increased mucus production
% MP, mucus production as % of the body weight at the start of the day before the treatment ([3]; day 1, Limax): 6.85%
ALP released into PBS ([3]; day 1, Limax): 3.81 U/L
LDH released into PBS ([3]; day 1, Limax): 1.65 U/L
Protein released into PBS ([3]; day 1, Limax): 14.48 μg/30μL
% MP, mucus production as % of the body weight at the start of the day before the treatment ([3]; day 2, Limax): 6.16%
ALP released into PBS ([3]; day 2, Limax): 6.49 U/L
LDH released into PBS ([3]; day 2, Limax): 4.29 U/L
Protein released into PBS ([3]; day 2, Limax): 11.67 μg/30μL
% MP, mucus production as % of the body weight at the start of the day before the treatment ([3]; day 3, Limax): 7.52%
ALP released into PBS ([3]; day 3, Limax): 5.09 U/L
LDH released into PBS ([3]; day 3, Limax): 6.02 U/L
Protein released into PBS ([3]; day 3, Limax): 6.27 μg/30μL
% MP, mucus production as % of the body weight at the start of the day before the treatment ([3]; day 4, Limax): 6.75%
ALP released into PBS ([3]; day 4, Limax): 3.28 U/L
LDH released into PBS ([3]; day 4, Limax): 18.23 U/L
Protein released into PBS ([3]; day 4, Limax): 10.4 μg/30μL
% MP, mucus production as % of the body weight at the start of the day before the treatment ([3]; day 5, Limax): 6.6%
ALP released into PBS ([3]; day 5, Limax): 3.62 U/L
LDH released into PBS ([3]; day 5, Limax): 10.63 U/L
Protein released into PBS ([3]; day 5, Limax): 10.36 μg/30μL

% MP, mucus production ([2]; in vivo): 0%
mucus production (in words) ([2]; in vivo): no mucus production
protein and enzyme release (in words) ([2]; in vivo): low protein and enzyme release
mucus production (in words) ([3]; in vivo): no mucus production
protein and enzyme release (in words) ([3]; in vivo): low protein and enzyme release
Molecule: hydroxypropyl-β-cyclodextrin [HPβCD]
ranking order of increasing toxicity ([2]; in vivo): PBS, 5% HPβCD<1% STDHF<1% SDC and 1% BAC
ranking order of increasing toxicity ([3]; in vivo): PBS, 5% HPβCD<1% STDHF<1% SDC and 1% BAC

Source: US6436630B1, “Method for testing the toxicity of chemical substances using gastropods” (priority 1998, dated 2002)
